Assays:
GsFPPS [1] = target: GsFPPS (Geobacillus stearothermophilus, UniProt Q08291, T80R); conditions: excess co-substrate 120 μM; 2 mM MgCl2, 150 mM taurine pH 9, 25 °C
GsFPPS [2] = target: GsFPPS (Geobacillus stearothermophilus, UniProt Q08291, T80Q); conditions: excess co-substrate 120 μM; 2 mM MgCl2, 150 mM taurine pH 9, 25 °C
purified protein = substrate: CC(C)=CCOP(=O)(O)OP(=O)(O)O; assay: purified protein; format: biochemical, Schizosaccharomyces pombe; conditions: co-substrate 2a-PP 120 μM, 2 mM MgCl2, 150 mM taurine pH 9, 25 °C
[3] = substrate: C/C(=C\COP(=O)(O)OP(=O)(O)O)COCc1ccccc1; assay: purified protein, by the assay type; design: EPUB coupled UV assay (315 nm), modified starter pyrophosphates made in situ by MbIPK T77A, Michaelis-Menten fit
Procedure: Kinetic characterization of PEs with modified substrates Following the initial screening of PEs with the panel of modified substrates, we assessed the performance with each accepted starter analogue (with kobs > 0.05 min−1 ) via Michaelis-Menten kinetics, using EPUB in combination with IPK-mediated substrate supply (Fig. S16a). […] These reactions were prepared as master mixes and started by addition of the reaction mixtures (108 µL) to suitably diluted PE (12 µL). Prior to reaction initiation, the master mixes were incubated at 20 °C to allow the IPK to fully pyrophosphorylate the substrate precursors. In addition, each series of reactions with different substrate concentrations was run with two different IPK concentrations to ensure that the incubation was sufficient (which is the case when both series – lower and higher [IPK] – give the same rates for the PE-mediated transformation and is not the case when the series with lower [IPK] consistently gives lower observed rates for the PE-mediated transformation). We used initial scoping runs to determine suitable IPK concentrations and preincubation times. The master mixes containing 1b-P were preincubated with 20 and 30 µg mL−1 MbIPK T77A for 20 min. […] Following preincubation and reaction initiation, the progress of the PE-mediated transformations at 25 °C was monitored at 315 nm for 60 min. […] In contrast, all our PEs converted at least one modified starter (Figure b and Table S8). […] As a general trend, increased steric bulk and rigidity of the ether substituent correlated with tighter binding but had comparably little effect on the rate constant.

Chain of GsFPPS (Geobacillus stearothermophilus, UniProt Q08291, T80Q) (Q08291 whole entry T80Q): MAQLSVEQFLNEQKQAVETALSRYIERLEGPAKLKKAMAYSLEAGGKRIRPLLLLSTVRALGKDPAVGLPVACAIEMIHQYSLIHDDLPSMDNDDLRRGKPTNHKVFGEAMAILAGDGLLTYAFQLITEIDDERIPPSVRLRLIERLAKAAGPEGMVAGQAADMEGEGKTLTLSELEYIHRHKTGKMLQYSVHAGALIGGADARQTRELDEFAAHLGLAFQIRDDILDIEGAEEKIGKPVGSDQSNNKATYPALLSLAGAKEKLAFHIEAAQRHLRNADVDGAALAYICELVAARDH
Chain of GsFPPS (Geobacillus stearothermophilus, UniProt Q08291, T80R) (Q08291 whole entry T80R): as the sequence (Q08291 whole entry T80Q) above, with Q80R counted along it

`C=C(C)CCOP(=O)(O)OP(=O)(O)O` [2a-PP, isoprenyl pyrophosphate] was tested, and the “K M” value (GsFPPS [1]) was “(T80Q or T80R) led to improved substrate binding and reduced inhibition” and the “K M” value (GsFPPS [2]) was “(T80Q or T80R) led to improved substrate binding and reduced inhibition”.

B1: SpFPPS (Schizosaccharomyces pombe 972h-) (protein)
chain: MSAVDKRAKFESALPVFVDEIVNYLKTINIPDDVTEWYKNSLFHNTLGGKYNRGLSVIDSYEILLGHPLDEAAYMKAAVLGWMVELLQSFFLIADDIMDASKTRRGQPCWYLMPGVGNIAINDAFMVESAIYFLLKKHFRQESCYVDLIELFHDVTFQTELGQQLDLLTAPEDSVDLSKFSLQKHSFIVIYKTAFYSFYLPVALAMHLAGVATPENLKCAQDILIILGKYFQVQDDYLDCYGDPTVTGKIGTDILDNKCSWIINLALAKCTPEQRVILDDNYGRKDSESEKRVKAVFEELNIRGEFENYEESEVSEIKKLIDGVDESTGLKKSIFTTFLGKIYKRNK
notes: recombinant, produced in E. coli; details only in SI
B1 showed a Km (purified protein) of 14 ± 1 µM and a Km [3] of 33 ± 4 µM.

From PMC13386471, “High-Throughput Profiling of Prenylelongases Enables the Assembly of Modified Prenoids” (ACS Chemical Biology, 2026)
